One compound from patent US11865157B2, “Compositions and methods of targeting cancer stem cells” (University of Houston System, priority 2016, dated 2024) can be followed below.

What all share (format): cell-based
One experiment has as its system H358 cells. Kind of experiment: Clonogenicity assay under treatment. To be noted: 2 weeks. As for the experimental part: To further validate that PCS2D1 inhibiting CSCs, the effects of PCS2D1 against a stem-cell-associated phenotype were studied with regards to the capacity to form colonies from a single cell by using the clonogenicity assay. About 300 cells were plated onto 35 mm cell culture plates with either 0, 1, 10, 30, or 100 μM of PCS2D1, and allowed to grow for 2 weeks. After staining with crystal violet, both the number of colonies and the overall morphology of the colonies were evaluated.
(§1) The clonogenicity assay was repeated with H358 cells, 500 cells/well, using 0, 10, 30 and 100 μM PCS2 treatment over 2 weeks. […] To confirm that this was due to the specific targeting on CSCs, the clonogenicity assay was performed again over 8 days, with the treatment performed from day 7 to 8 instead, to allow the colonies to establish. This was done alongside control cells plated on chamber slides and then grown under the same conditions.

For experiment [1], the system named is unsorted H358 cells. Nature of the experiment: MTS cell-proliferation assay on unsorted cells. The method, then: Further experiments were conducted to evaluate how PCS2 affects the proliferation of unsorted cancer cell populations. The standard MTS cell-proliferation assay was performed on unsorted H358 cells (known to contain 5-15% of CSCs) and measured proliferation rates over 6 days, at concentrations ranging from 100 nM to 100 μM of PCS2D1.
(Formazan colour is commonly taken as a measure of viable cells.)

The subject of experiment [2] is unsorted H358 cells. Nature of the experiment: Expression of CSC markers after treatment. To be noted: 100 μM, after 96 hours of treatment.
For another experiment, the system named is H358 colonies. Kind of experiment: Variation of the clonogenicity assay: treatment of established colonies, crystal violet and ALDEFluor staining. The method, then:
Another set of experiments were designed to evaluate if differentiated cells from CSCs were targeted by PCS2D1 as well. A variation of the clonogenicity assay was performed, where about 300 unsorted H358 cells were plated to 35 mm plates each and allowed to form colonies for 7 days. After that time, the colonies were treated with either 0, 1, 10, 30, or 100 μM of PCS2D1 for 24 hours, and then stained with crystal violet. The colonies were examined under a microscope. […] To determine if the cells lost are CSCs or the differentiated cells, ALDEFluor staining was performed against some of the colonies at 0 and 100 μM treatment.
as §1

The test system of another experiment is H358 ALDH− cells. Kind of experiment: MTS survival assay on sorted cells. The method, then: To verify that PCS2-treatment has a direct effect on the survival of CSCs, an MTS survival assay was performed on sorted H358 cells. The assay is based on the reduction of MTS tetrazolium compound by viable cells to generate a colored formazan product that is soluble in cell culture media. This conversion is thought to be carried out by NAD(P)H-dependent dehydrogenase enzymes in metabolically active cells. The formazan dye produced by viable cells was quantified by measuring the absorbance at 490-500 nm. H358 cells were stained using the ALDEFluor, then the ALDH+ cells were isolated by the MD Anderson Flow Cytometry and Cell Sorting core. The sorted ALDH+ cells were treated with 1 nM to 100 μM of PCS2D1 for 24 hours, and then the relative amount of surviving cells was determined by MTS. The number of cells in the ALDH+ fraction decreased under the treatment of PCS2D1, while ALDH^− cells were unaffected (FIG. 10). […] Furthermore, this peptoid is still at the initial stage of development and further modifications can be made to optimize and increase the potency.
To verify that PCS2-treatment has a direct effect on the survival of CSCs, an MTS survival assay was performed on sorted H358 cells as described in Example 4. The number of cells in the ALDH+ fraction decreased under the treatment of PCS2D1, while ALDH^− cells were unaffected (FIG. 21). The IC50 was around 2 μM. […]

The next experiment has as its system H358 unsorted cells. Nature of the experiment: Scratch (wound healing) assay. The conditions noted are these: 10 μM and higher, 24 hours. The method, then:
Another stem-cell-associated phenotype is the capacity of stem cells to migrate and repair gaps in a tissue or cell culture. To determine if this capacity is affected by PCS2D1, a scratch (would healing) assay was performed on H358 cells after 24 hour treatment of 0, 0.3, 1, 3 10, 30 or 100 μM of PCS2D1. Each well of confluent H358 unsorted cells was scratched using a 1000 μL pipet tip, washed, then treated with PCS2D1 for 24 hours. Each well was then stained, and the average area of the remaining scratch was calculated from a microscope viewing window near the center of the well.

“Also recorded” adds a separate entry of the source. Numbered stars: 1 amine (or outer) side, 2 acyl side, 3 side chain; on linkers, the order of the positions; unused ones are H or OH. Bridge positions count the residues as written; N and C are the ends. Square brackets hold non-standard residues; d marks the D form. Peptide text beside a SMILES is read from it. I, II: the chains in the order shown. Gly(N-piperonyl) = O=C(O)CNCc1ccc2c(c1)OCO2; X1 = CC(c1ccccc1)N(CC(=O)[*:2])[*:1]; Nlys = NCCCCNCC(=O)O; Nme = COCCNCC(=O)O

With `COCCNCC(=O)N(CCCCN)CC(=O)N(CC(=O)N(CC(=O)N(CCCCN)CC(=O)N[C@@H](CCCCN)C(=O)N[C@H](CCCCN)C(=O)N[C@@H](CCSC)C(=O)NCCCC[C@H](NC(=O)[C@H](CCSC)NC(=O)[C@@H](CCCCN)NC(=O)[C@H](CCCCN)NC(=O)CN(CCCCN)C(=O)CN(C(=O)CN(Cc1ccc2c(c1)OCO2)C(=O)CN(CCCCN)C(=O)CNCCOC)C(C)c1ccccc1)C(N)=O)C(C)c1ccccc1)Cc1ccc2c(c1)OCO2` (stereo partly drawn) [PCS2D1] (I: H-[Nme][Nlys][Gly(N-piperonyl)][X1][Nlys]K[dK]MK-NH2 / II: H-[Nme][Nlys][Gly(N-piperonyl)][X1][Nlys]K[dK]M; amide I:9-II:C; N-terminus and C-terminus assumed), the “morphology of the colonies” value in the experiment on H358 cells (10 μM) was “significantly more dispersed colonies”. For the same compound, the colonies formed entry with H358 cells (about 300 cells, 30 and 100 μM) was “significant decrease in colonies formed”. The “overall growth of the H358 cell line” value in the experiment with unsorted H358 cells [1] (30 μM and higher, by day 2) is “significantly decreased”. Moreover, the “growth of the H358 cell line” value in the experiment with unsorted H358 cells [1] (100 μM, over 6 days) was “no significant growth”. Besides, in the experiment with unsorted H358 cells [2], the “expression of ALDH1A3” value is “significant drop”, the “expression of PLEC” value is “significant drop” and the “expression of SOX2” value is reported as “significant drop”. Besides, in the experiment on H358 colonies (100 μM, ALDEFluor staining), the “ALDH fluorescence of colonies” value is “no significant fluorescence; also recorded: complete loss of ALDH^+ cells”. The “ALDH fluorescent cell number” value with H358 colonies (10-30 μM, Aldefluor assay) is recorded as “reduction in fluorescent cell number”. Moreover, the “loss of cells from the colony center” value with H358 colonies (colonies grown 7 days, then 24 hours treatment at 10 μM and higher) is “significant loss of cells from the colony center; also recorded: significant loss of “central” cells”. For the same compound, the “effect on ALDH− cells” value in the experiment on H358 ALDH− cells is “unaffected”. Moreover, the “migration (area of remaining scratch)” value with H358 unsorted cells is “migration was significantly inhibited”.
